Data set [1] concerns MMP-1. The experiment in a line: MMP-1 gene expression analysis by real-time PCR in dermal fibroblasts. It is filed as cell-based. The conditions noted are these: Homo sapiens, NB1RGB, 48 h, read-out: MMP-1 gene expression level. The procedure:
(§1) As the control, a medium not comprising these components was used.
(§2) RNA concentrations were calculated using OD260 and diluted with TE Buffer to adjust the RNA concentrations to 10 μg/mL.
(§3) Reverse transcription of RNA was carried out using SuperScript™ IV VILO™ Master Mix with ezDNase (Cat No. 11766050, Invitrogen, USA). 4 μL of SuperScript™ IV VILO™ Master Mix and 6 μL of Nuclease-free Water were added per well in an 8-tube strip and heated at 25° C. for 10 min, 50° C. for 10 min, and 85° C. for 5 min using real-time PCR (QuantStudio (registered trademark) 3, Applied Biosystems, USA) to synthesize cDNA. 10 μL of TaqMan (registered trademark) Fast Advanced Master Mix (Cat No. 4444557, Applied Biosystems, USA), 1 μL of TaqMan Gene Expression, 7 μL of UltraPure™ Distilled Water (Invitrogen, Cat No. 10977-015, USA), and 2 μL of cDNA were added per well in a PCR plate and sealed. A primer (Hs00899658_ml) for MMP-1 and a primer (Hs00153510_ml) for NEP; and a primer (Hs02786624_g1) for GAPDH as an internal standard gene; were used to carry out real-time qPCR, the threshold cycle (Ct) value of each of the MMP-1 gene and the NEP gene in the medium supplemented with each component was calculated, and then Ct value was corrected with GAPDH to obtain a ΔCt value. Assuming that gene level doubles per cycle, when gene expression level of the control was set at 1, the gene expression level in the medium supplemented with each component was determined. In the analysis of gene expression level, the average value of 24-well plate×3 wells was used for each treatment group.
(Quantitative PCR measures a nucleic acid by following its amplification.)

Data set [2] has as its system NEP. The experiment in a line: NEP gene expression analysis by real-time PCR in dermal fibroblasts. The conditions noted are these: Homo sapiens, NB1RGB, 48 h, read-out: NEP gene expression level. It is filed as cell-based. The procedure:
as §1, §2, §3

Data set [3] has as its system Type I collagen. The data set can be described thus: Collagen production rate in culture supernatant by sandwich ELISA. It is filed as cell-based. Conditions: Homo sapiens, NB1RGB fibroblasts, 48 h, OD405/OD570, no-addition group = 100, read-out: Collagen production rate (%) per cell. The protocol: A supernatant of the culture cultured in 2-1 was dispensed into a new 96-well plate and frozen for storage (−80° C.). The collagen production rate in the culture supernatant was measured by sandwich ELISA, and the effect of citronellol on the collagen level was evaluated.
100 μL of culture supernatant diluted 4-fold with PBS(−) was added to a high-binding 96-well plate, and incubated overnight at 4° C. Type I collagen solution (Cat No. 009-001-103, RCK, USA) was used as a standard substance. […] The dye was uniformized within the 96-well plate, and then absorbance (OD405) at 405 nm was measured using a microplate reader.
Setting OD405 of the control group at 100%, the collagen production rate of citronellol was calculated. In addition, the OD405 of the control and citronellol were each divided by OD570 measured in 2-2 to calculate the collagen production rate per cell. Setting the collagen production rate per cell in the control group at 100%, the collagen production rate of citronellol per cell was calculated.

Data set [4] has as its system human neonatal dermal fibroblast cell line NB1RGB.
Protocol: After 24 h, the medium was removed and replaced with a medium to which citronellol (CAS number: 106-22-9, Wako Pure Chemical Industries, Ltd.) was added so as to have the final concentration shown in Table 3 below, and the cells were further cultured within the CO2 incubator for 48 h. As the control, a medium not comprising citronellol was used.
According to the following method, the effect of citronellol on proliferation of dermal fibroblasts was evaluated.
A 96-well plate from which the medium was removed was washed with 100 μL of PBS(−). 100 μL of 0.5 mg/mL 3-(4,5-dimethylthiazol-2-yl)-2,5-diphenyltetrazolium bromide (MTT, CAS No. 298-93-1, Sigma-Aldrich, USA) solution was then added and incubated within a CO2 incubator for 2 h. After removing the MTT solution and washing with 100 μL of PBS(−), 200 μL of 2-propanol (CAS No. 67-63-0, Wako, Japan) was added to dissolve the insoluble formazan. A dye was uniformly dispersed within the 96-well plate, and then absorbance (OD570) at 570 nm was measured using a microplate reader (SPARK (registered trademark), 10M TECAN, Switzerland). Setting OD570 of the control group at 100%, OD570 of the citronellol-added group, i.e., the effect on cell proliferation, was calculated as the cell-activating effect (%) of citronellol. In the analysis of cell-activating effect, the average value of 96-well plate 9×3 wells was used for each treatment group.

Four molecules from US20260283917A1, “ANTI-WRINKLE AGENT” (SHISEIDO COMPANY, LTD., priority 2023, published 2026) can be followed below.

Regarding `CCCCCOC(=O)CCC` [Amyl butyrate], the fold induction at 50 µM in data set [1] was 0.24; in data set [2], 0.43.

As for `c1ccc2[nH]ccc2c1` [Indole], the values for the fold induction at 50 µM in data set [1] and in data set [2] were 0.36 and 0.4, respectively.

Regarding `CC(C)=CCCC(C)=CCCC(C)=CCO` [Farnesol], the fold induction at 50 µM in data set [1] stood at 0.22; in data set [2], 0.44.

Turning to `CC(C)=CCCC(C)CCO` (stereo not shown) [Citronellol], the fold induction at 50 µM in data set [1] amounted to 0.25; in data set [2] it was 0.85. Besides, the activity at 50 µM in data set [3] worked out at 102%. Also, in data set [4], the “cell-activating effect / toxicity (proliferation of fibroblasts, MTT)” value was “no cell-activating effect or toxicity”.
